The values below come from ChEMBL document CHEMBL1144598, “Synthesis and characterization of cobalt(II), nickel(II), copper(II) and zinc(II) complexes with Schiff base derived from 4-amino-3-mercapto-6-methyl-5-oxo-1,2,4-triazine” (2007).

The test system of test [1] is Staphylococcus aureus. Briefly: Antibacterial activity against Staphylococcus aureus MTCC 3160 by agar dilution method. The format is functional. On the technique in general: Agar dilution tests growth on a series of plates holding different concentrations.
Test [2] deals with Staphylococcus epidermidis. Briefly: Antibacterial activity against Staphylococcus epidermidis MTCC 2639 by agar dilution method. The class given is functional.
In test [3] the test system is Bacillus subtilis. Description: Antibacterial activity against Bacillus subtilis MTCC 121 by agar dilution method. The format is functional.
Test [4] deals with Salmonella typhi. Description: Antibacterial activity against Salmonella typhi MTCC 733 by agar dilution method. The class given is functional, Salmonella enterica subsp. enterica serovar Typhi. The note with it: Salmonella enterica.
Test [5] has as its system Escherichia coli. Briefly: Antibacterial activity against Escherichia coli MTCC 51 by agar dilution method. The format is functional.

The structures appear in SMILES notation. ≈ marks a conversion by molar mass, not a printed value.

On to `C/C(=N\n1c(S)nnc(C)c1=O)c1ccccn1`, for which the MIC (in general, the least concentration at which growth counts as inhibited) in test [1] came out at 16 µg/mL (≈ 61.2 µM); in test [2], 32 µg/mL (≈ 122 µM); in test [3], 8 µg/mL (≈ 30.6 µM); in test [4], 16 µg/mL (≈ 61.2 µM); in test [5], 16 µg/mL (≈ 61.2 µM).
Consider `N[C@@H](C(=O)N[C@@H]1C(=O)N2C(C(=O)O)=C(Cl)CS[C@H]12)c1ccccc1` [CEFACLOR ANHYDROUS], for which the MIC in test [1] amounted to 16 µg/mL (≈ 43.5 µM); in test [2], 32 µg/mL (≈ 87 µM); in test [3], 8 µg/mL (≈ 21.8 µM); in test [4], 8 µg/mL (≈ 21.8 µM); in test [5] it was 4 µg/mL (≈ 10.9 µM).
